Patent US4235911A, “Hydantoin derivatives” (Pfizer Inc., priority 1979, dated 1980)

Columns and labels:
[1] = test system: galactitol levels in the lens of galactosemic subjects; experiment: lowering of galactitol levels in the lens of galactosemic subjects; type: in vivo; settings: statement in words
Procedure: (§1) The activity of the compounds of the present invention, as agents for the control of chronic diabetic complications, is determined by their ability to successfully pass one or more of the following standard biological and/or pharmacological tests, viz., (1) measuring their ability to inhibit the enzyme activity of isolated aldose reductase; (2) measuring their ability to reduce or inhibit sorbitol accumulation in the sciatic nerve of acutely streptozotocinized (i.e., diabetic) rats; (3) measuring their ability to reverse already-elevated sorbitol levels in the sciatic nerve and lens of chronic streptozotocin-induced diabetic rats; (4) measuring their ability to prevent or inhibit galactitol formation in the lens of acutely galactosemic rats, and (5) measuring their ability to delay cataract formation and reduce the severity of lens opacities in chronic galactosemic rats.

aldose reductase = biological target: T1, aldose reductase (Bos taurus, UniProt P16116); experiment: inhibition of isolated aldose reductase enzyme activity (procedure of S. Hayman et al. as modified by K. Sestanj et al.); type: biochemical, calf; settings: for IC50: partially purified aldose reductase from calf lens, 50% reduction in enzyme activity, read-out: Concentration Level (IC50); for aldose reductase inhibitory activity: statement in words
T1 construct: partially purified aldose reductase enzyme obtained from calf lens; from tissue; host or cells: calf lens
Procedure: as §1, with “rats. The following tetrahydroquinoline-derived spiro-hydantoin compounds of Examples 1-4, respectively, were tested for their ability to reduce or inhibit aldose reductase enzyme activity via the procedure of S. Hayman et al., as described in the Journal of Biological Chemistry, Vol. 240, p. 877 (1965) and as modified by K. Sestanj et al. in U.S. Pat. No. 3,821,383. In every case, the substrate employed was partially purified aldose reductase enzyme obtained from calf lens.” for “rats.”

[2] = test system: sorbitol levels in the lens and sciatic nerve of diabetic subjects; experiment: lowering of sorbitol levels in the lens and nerve of diabetic subjects; type: in vivo; settings: statement in words
Procedure: as §1

[3] = test system: formation of sorbitol levels in diabetic rats; experiment: inhibition of formation of sorbitol levels in diabetic rats, oral; type: in vivo, rat; settings: 5.0 mg./kg. to 25 mg./kg.
Description: (§2) As previously indicated, the tetrahydroquinoline-derived spiro-hydantoin compounds of this invention are all readily adapted to therapeutic use as aldose reductase inhibitors for the control of chronic diabetic complications, in view of their ability to reduce lens sorbitol levels in diabetic subjects to a statistically significant degree. […] The other compounds of this invention also cause similar results. Furthermore, all the herein described compounds of this invention can be administered by either the oral or parenteral routes of administration, for the present purposes at hand, without causing any significant untoward pharmacological side reactions to occur in the subject to whom they are so administered. In general, these compounds are ordinarily administered in dosages ranging from about 0.25 mg. to about 25 mg. per kg. of body weight per day, although variations will necessarily occur depending upon the weight and condition of the subject being treated and the particular route of administration chosen.

[4] = toxic side effects in diabetic rats, oral; type: in vivo, rat; settings: 5.0 mg./kg. to 25 mg./kg.
Description: as §2

IC50 (aldose reductase) | aldose reductase inhibitory activity (aldose reductase) | SMILES | lowering galactitol levels in the lens of galactosemic subjects [1] | lowering sorbitol levels in the lens and sciatic nerve of diabetic subjects [2] | control (i.e., inhibit) the formation of sorbitol levels in diabetic rats [3] | toxic side effects [4]
50 µM | highly potent | CN1CCC2(NC(=O)NC2=O)c2ccccc21.Cl (stereo not drawn) [Product of Example 1, 1'-methyl-1',2',3',4'-tetrahydro-spiro-[imidazolidine-4,4'-quinoline]-2,5-dione hydrochloride] | extremely effective | extremely effective | – | –
10 µM | highly potent | CN1CCC2(NC(=O)NC2=O)c2cccnc21 (stereo not drawn) [Product of Example 2, 1'-methyl-1',2',3',4'-tetrahydro-spiro-[imidazolidine-4,4'-pyrido(2,3-b)pyridine]-2,5-dione] | extremely effective | extremely effective | – | –
10 µM | highly potent | O=C1NC(=O)C2(CCNc3cc(Cl)ccc32)N1 (stereo not drawn) [Product of Example 3, 7'-chloro-1',2',3',4'-tetrahydro-spiro-[imidazolidine-4,4'-quinoline]-2,5-dione] | extremely effective | extremely effective | – | –

SMILES | IC50 (aldose reductase) | aldose reductase inhibitory activity (aldose reductase) | lowering galactitol levels in the lens of galactosemic subjects [1] | lowering sorbitol levels in the lens and sciatic nerve of diabetic subjects [2] | control (i.e., inhibit) the formation of sorbitol levels in diabetic rats [3] | toxic side effects [4]
O=C1NC(=O)C2(CCNc3ccc(Cl)cc32)N1 (stereo not drawn) [Product of Example 4, 6'-chloro-1',2',3',4'-tetrahydro-spiro-[imidazolidine-4,4'-quinoline]-2,5-dione] | 1 µM | highly potent | extremely effective | extremely effective | to a significantly high degree | without showing any substantial signs of toxic side effects
